According to patent US20230091047A1 (priority 2019, published 2023):
Read-outs that look alike come from different tables or passages of the source.

Tests used:
[1] = tested on: HBV (HepG2.117 cell line, inducibly HBV producing); experiment: Anti-HBV activity: intracellular HBV DNA by real-time PCR in HepG2.117 cells after 3 days of treatment; format: cell-based, hepatitis B virus
Experimental: The anti HBV activity was measured using the HepG2.117 cell line, a stable, inducibly HBV producing cell line, which replicates HBV in the absence of doxycycline (Tet-off system). The HepG2 cell line is available from ATCCR under number HB-8065. Transfection of the HepG2 cell line can be as described in Sun and Nassal 2006 Journal of Hepatology 45 (2006) 636-645 “Stable HepG2- and Huh7-based human hepatoma cell lines for efficient regulated expression of infectious hepatitis B virus”.
For the antiviral assay, HBV replication was induced, followed by a treatment with serially diluted compound in 96-well plates. After 3 days of treatment, the antiviral activity was determined by quantification of intracellular HBV DNA using real-time PCR and an HBV specific primer set and probe.

in vitro = format: cell-based; conditions: human, HepG2 or HepG2.117 cells, ATPlite, mean value
Experimental: Cytotoxicity of the compounds was tested using HepG2 or HepG2.117 cells, incubated for 3 or 4 days in the presence of compounds. The viability of the cells was assessed using the PERKIN ELMER ATPlite Luminescence Assay System.”

[2] = Hepatitis B virus, HepG2.117, 72 h, HepG2.117 cells, 3 days of treatment, intracellular HBV DNA by real-time PCR; mean value; read-out: EC50 (μM, mean value)
[3] = 3-days incubation (unmarked values)
[4] = Hepatitis B virus, HepG2.117, 72 h, HepG2.117 cells, intracellular HBV DNA by real-time PCR, 3 days of treatment, mean value; read-out: EC50 (μM, mean value)
[5] = 3-days incubation (not marked with *)

CNC(=O)c1ccc(-n2c(N[C@H](C)c3ccnn3C)nc3c(c2=O)C[C@@H](C)N(C(=O)c2ccc(Cl)c(Cl)c2)C3)cc1 (single isomer, unassigned) [Compound C372a]
EC50 [1, 2]: 5.42 µM | CC50 at 3 days (in vitro; [3]): > 50 µM

CNC(=O)c1ccc(-n2c(N[C@@H](C)c3ccnn3C)nc3c(c2=O)C[C@@H](C)N(C(=O)c2ccc(Cl)c(Cl)c2)C3)cc1 (single isomer, unassigned) [Compound C372b]
EC50 [1, 2]: 2.54 µM | CC50 at 3 days (in vitro; [3]): > 50 µM

CNC(=O)c1ccc(-n2c(N[C@H](C)c3ccncc3)nc3c(c2=O)C[C@@H](C)N(C(=O)c2ccc(Cl)c(Cl)c2)C3)cc1 (single isomer, unassigned) [Compound C375a]
EC50 [1, 2]: 3.19 µM | CC50 at 3 days (in vitro; [3]): > 50 µM

CNC(=O)c1ccc(-n2c(N[C@@H](C)c3ccncc3)nc3c(c2=O)C[C@@H](C)N(C(=O)c2ccc(Cl)c(Cl)c2)C3)cc1 (single isomer, unassigned) [Compound C375b]
EC50 [1, 2]: 0.62 µM | CC50 at 3 days (in vitro; [3]): > 50 µM

CNC(=O)c1ccc(-n2c(N[C@H](C)c3cccnc3)nc3c(c2=O)C[C@@H](C)N(C(=O)c2ccc(Cl)c(Cl)c2)C3)cc1 (single isomer, unassigned) [Compound C377a]
EC50 [1, 4]: 0.82 µM | CC50 at 3 days (in vitro; [5]): > 50 µM

CNC(=O)c1ccc(-n2c(N[C@@H](C)c3cccnc3)nc3c(c2=O)C[C@@H](C)N(C(=O)c2ccc(Cl)c(Cl)c2)C3)cc1 (single isomer, unassigned) [Compound C377b]
EC50 [1, 2]: 3.95 µM | CC50 at 3 days (in vitro; [3]): > 50 µM

CCc1cc(C(=O)NC)ccc1-n1c(NC(C)C)nc2c(c1=O)C[C@@H](C)N(C(=O)c1ccc(Cl)c(Cl)c1)C2 (single isomer, unassigned) [Compound C383a]
EC50 [1, 4]: 0.32 µM | CC50 at 3 days (in vitro; [5]): > 50 µM

CNC(=O)c1ccc(-n2c(N[C@@H](C)c3ccccc3)nc3c(c2=O)C[C@@H](C)N(C(=O)c2ccc(Cl)c(Cl)c2)C3)c(Cl)c1 (single isomer, unassigned) [Compound C386a]
EC50 [1, 4]: 0.08 µM | CC50 at 3 days (in vitro; [5]): > 50 µM

CNC(=O)c1ccc(-n2c(N[C@@H](C)C3CC3)nc3c(c2=O)C[C@@H](C)N(C(=O)c2ccc(Cl)c(Cl)c2)C3)c(Cl)c1 (single isomer, unassigned) [Compound C387a]
EC50 [1, 4]: 0.05 µM | CC50 at 3 days (in vitro; [5]): > 50 µM

CC(C)Nc1nc2c(c(=O)n1-c1ccc(-c3nccn3C)cc1Cl)C[C@@H](C)N(C(=O)c1ccc(Cl)c(Cl)c1)C2 (single isomer, unassigned) [Compound C392a]
EC50 [1, 4]: 0.16 µM | CC50 at 3 days (in vitro; [5]): 22.7 µM

CNC(=O)c1ccc(-n2c(N[C@H](C)c3cccc(OC)c3)nc3c(c2=O)C[C@@H](C)N(C(=O)c2ccc(Cl)c(Cl)c2)C3)cc1 (single isomer, unassigned) [Compound C394a]
EC50 [1, 4]: 32.5 µM | CC50 at 3 days (in vitro; [5]): > 50 µM

CNC(=O)c1ccc(-n2c(N[C@@H](C)c3cccc(OC)c3)nc3c(c2=O)C[C@@H](C)N(C(=O)c2ccc(Cl)c(Cl)c2)C3)cc1 (single isomer, unassigned) [Compound C394b]
EC50 [1, 4]: 0.15 µM | CC50 at 3 days (in vitro; [5]): 29 µM

CNC(=O)c1ccc(-n2c(N3CCC[C@@H]3c3ccccc3)nc3c(c2=O)C[C@@H](C)N(C(=O)c2ccc(Cl)c(Cl)c2)C3)cc1 (single isomer, unassigned) [Compound C401a]
EC50 [1, 4]: 0.36 µM | CC50 at 3 days (in vitro; [5]): 13.8 µM

CNC(=O)c1ccc(-n2c(N3CCC[C@H]3c3ccccc3)nc3c(c2=O)C[C@@H](C)N(C(=O)c2ccc(Cl)c(Cl)c2)C3)cc1 (single isomer, unassigned) [Compound C401b]
EC50 [1, 4]: 0.83 µM | CC50 at 3 days (in vitro; [5]): 18.2 µM

CNC(=O)c1ccc(-n2c(N[C@H](C)c3ccccc3OC)nc3c(c2=O)C[C@@H](C)N(C(=O)c2ccc(Cl)c(Cl)c2)C3)cc1 (single isomer, unassigned) [Compound C402a]
EC50 [1, 4]: 0.32 µM | CC50 at 3 days (in vitro; [5]): 13.8 µM

CNC(=O)c1ccc(-n2c(N[C@@H](C)c3ccccc3OC)nc3c(c2=O)C[C@@H](C)N(C(=O)c2ccc(Cl)c(Cl)c2)C3)cc1 (single isomer, unassigned) [Compound C402b]
EC50 [1, 4]: 0.08 µM | CC50 at 3 days (in vitro; [5]): 18.8 µM

CNC(=O)c1ccc(-n2c(N[C@H](C)C3CCC3)nc3c(c2=O)C[C@@H](C)N(C(=O)c2ccc(Cl)c(Cl)c2)C3)cc1 (single isomer, unassigned) [Compound C406a]
EC50 [1, 4]: 0.18 µM | CC50 at 3 days (in vitro; [5]): 31.3 µM

CNC(=O)c1ccc(-n2c(N[C@@H](C)C3CCC3)nc3c(c2=O)C[C@@H](C)N(C(=O)c2ccc(Cl)c(Cl)c2)C3)cc1 (single isomer, unassigned) [Compound C406b]
EC50 [1, 4]: 0.16 µM | CC50 at 3 days (in vitro; [5]): 24.5 µM

COc1ccc([C@H](C)Nc2nc3c(c(=O)n2-c2ccc(NC(C)=O)cc2)C[C@@H](C)N(C(=O)c2ccc(Cl)c(Cl)c2)C3)cc1 (single isomer, unassigned) [Compound C410b]
EC50 ([1]; HepG2.117 cells, intracellular HBV DNA by real-time PCR, 3 days of treatment, mean value; read-out: EC50 (μM, mean value)): 0.11 µM | CC50 at 3 days (in vitro; [5]): > 50 µM

CNC(=O)c1ccc(-n2c(N[C@H](C)c3ccc(S(C)(=O)=O)cc3)nc3c(c2=O)C[C@@H](C)N(C(=O)c2ccc(Cl)c(Cl)c2)C3)cc1 (single isomer, unassigned) [Compound C412a]
EC50 [1, 4]: 0.94 µM | CC50 at 3 days (in vitro; [5]): > 50 µM

CNC(=O)c1ccc(-n2c(N[C@@H](C)c3ccc(S(C)(=O)=O)cc3)nc3c(c2=O)C[C@@H](C)N(C(=O)c2ccc(Cl)c(Cl)c2)C3)cc1 (single isomer, unassigned) [Compound C412b]
EC50 [1, 4]: > 10 µM | CC50 at 3 days (in vitro; [5]): > 50 µM

CNC(=O)c1ccc(-n2c(N[C@H](C)c3ccc(C(F)(F)F)cc3)nc3c(c2=O)C[C@@H](C)N(C(=O)c2ccc(Cl)c(Cl)c2)C3)cc1 (single isomer, unassigned) [Compound C413a]
EC50 [1, 4]: 0.06 µM | CC50 at 3 days (in vitro; [5]): 9 µM

CNC(=O)c1ccc(-n2c(N[C@@H](C)c3ccc(C(F)(F)F)cc3)nc3c(c2=O)C[C@@H](C)N(C(=O)c2ccc(Cl)c(Cl)c2)C3)cc1 (single isomer, unassigned) [Compound C413b]
EC50 [1, 4]: 4.13 µM | CC50 at 3 days (in vitro; [5]): 8.3 µM

CNC(=O)c1ccc(-n2c(N[C@H](C)c3ccc4c(c3)OCO4)nc3c(c2=O)C[C@@H](C)N(C(=O)c2ccc(Cl)c(Cl)c2)C3)cc1 (single isomer, unassigned) [Compound C414a]
EC50 [1, 4]: 0.29 µM | CC50 at 3 days (in vitro; [5]): > 50 µM

CNC(=O)c1ccc(-n2c(N[C@@H](C)c3ccc4c(c3)OCO4)nc3c(c2=O)C[C@@H](C)N(C(=O)c2ccc(Cl)c(Cl)c2)C3)cc1 (single isomer, unassigned) [Compound C414b]
EC50 [1, 4]: 0.06 µM | CC50 at 3 days (in vitro; [5]): > 50 µM

CNC(=O)c1ccc(-n2c(N[C@H](C)c3ccc(OC)c(OC)c3)nc3c(c2=O)C[C@@H](C)N(C(=O)c2ccc(Cl)c(Cl)c2)C3)cc1 (single isomer, unassigned) [Compound C415a]
EC50 [1, 4]: 1.06 µM | CC50 at 3 days (in vitro; [5]): 32.9 µM

CNC(=O)c1ccc(-n2c(N[C@@H](C)c3ccc(OC)c(OC)c3)nc3c(c2=O)C[C@@H](C)N(C(=O)c2ccc(Cl)c(Cl)c2)C3)cc1 (single isomer, unassigned) [Compound C415b]
EC50 [1, 4]: 0.12 µM | CC50 at 3 days (in vitro; [5]): 27.6 µM

CNC(=O)c1ccc(-n2c(N[C@H](C)c3ccc(OC)c(F)c3)nc3c(c2=O)C[C@@H](C)N(C(=O)c2ccc(Cl)c(Cl)c2)C3)cc1 (single isomer, unassigned) [Compound C416a]
EC50 [1, 4]: 0.96 µM | CC50 at 3 days (in vitro; [5]): > 50 µM

CNC(=O)c1ccc(-n2c(N[C@@H](C)c3ccc(OC)c(F)c3)nc3c(c2=O)C[C@@H](C)N(C(=O)c2ccc(Cl)c(Cl)c2)C3)cc1 (single isomer, unassigned) [Compound C416b]
EC50 [1, 4]: 0.06 µM | CC50 at 3 days (in vitro; [5]): 34.5 µM
